Laboratory results taken from PMC8068361, “Design and Synthesis of a Novel PLK1 Inhibitor Scaffold Using a Hybridized 3D-QSAR Model” (International Journal of Molecular Sciences, 2021).
Read-outs that look alike come from different tables or passages of the source. One block for each compound: values may come before it.

Experiments:
PLK1(h) = target: T1, PLK1(h) (Homo sapiens, UniProt P53350); assay: PLK1 kinase IC50, Reaction Biology IC50 Profiler Express, 33P-ATP radiometric; format: biochemical; conditions: enzymatic; ATP 10 μM, casein substrate
T1 construct: purchased Reaction Biology Corp

PLK1 [1] = target: T2, PLK1 (Homo sapiens, UniProt P53350); assay: Kinase panel screen (Kinase HotSpot), single dose 10 µM: PLK1; format: biochemical; conditions: duplicate, read-out: inhibitory activity against PLK1
T2 construct: purchased Reaction Biology Corp
Procedure: (§1) Assay protocol: In a final reaction volume of 25 μL, substrate[Casein], 1 μM, ATP 10 μM, PLK1(h) (5–10 mU) is incubated with 25 mM Tris pH 7.5, 0.02 mM EGTA, 0.66 mg/mL myelin basic protein, 10 mM Mg acetate, and [^33P-ATP] (specific activity approx. 500 cpm/pmol, concentration as required). The reaction is initiated by addition of the Mg-ATP mix. After incubation for 40 min at room temperature, the reaction is stopped by addition of 5 μL of a 3% phosphoric acid solution. […] The 30 selected protein kinases were ABL1, AKT1, ALK, Aurora A, AXL, AXL (R499C), BRAF (V599E), BTK, c-MER, c-MET, c-Src, CAMKK1, CDK1/cyclin A, EGFR, ERK1, FGFR3, FYN, IGF1R, JAK3, KDR/VEGFR2, LCK, LYN, MEK1, PKA, PLK1, PLK2, PLK3, PLK4/SAK, SYK, and TYRO3/SKY4.

PLK2 = target: T3, PLK2 (Homo sapiens, UniProt Q9NYY3); assay: Kinase panel screen (Kinase HotSpot), single dose 10 µM: PLK2; format: biochemical
T3 construct: purchased Reaction Biology Corp
Procedure: as §1

PLK3 = target: T4, PLK3 (Homo sapiens, UniProt Q9H4B4); assay: Kinase panel screen (Kinase HotSpot), single dose 10 µM: PLK3; format: biochemical
T4 construct: purchased Reaction Biology Corp
Procedure: as §1

other protein kinases = assay: Kinase panel screen (Kinase HotSpot), single dose 10 µM: other kinases of the 30-kinase panel; format: biochemical
Procedure: as §1

PLK1 [2] = target: T2, PLK1; design: method as in ref 18 (a number printed in a supplementary file, which may have a reference list of its own: not looked up in the article's list); conditions: Table S1, Plk1, cited from earlier work; for Activity pIC50: pIC50 = −log IC50
PLK1 [3] = target: T2, PLK1; conditions: in words; cited from earlier work
PLK1 [4] = target: T2, PLK1; design: method as in ref 17 (a number printed in a supplementary file, which may have a reference list of its own: not looked up in the article's list); conditions: Table S2, Plk1, cited from earlier work

T1 sequence (P53350 whole entry): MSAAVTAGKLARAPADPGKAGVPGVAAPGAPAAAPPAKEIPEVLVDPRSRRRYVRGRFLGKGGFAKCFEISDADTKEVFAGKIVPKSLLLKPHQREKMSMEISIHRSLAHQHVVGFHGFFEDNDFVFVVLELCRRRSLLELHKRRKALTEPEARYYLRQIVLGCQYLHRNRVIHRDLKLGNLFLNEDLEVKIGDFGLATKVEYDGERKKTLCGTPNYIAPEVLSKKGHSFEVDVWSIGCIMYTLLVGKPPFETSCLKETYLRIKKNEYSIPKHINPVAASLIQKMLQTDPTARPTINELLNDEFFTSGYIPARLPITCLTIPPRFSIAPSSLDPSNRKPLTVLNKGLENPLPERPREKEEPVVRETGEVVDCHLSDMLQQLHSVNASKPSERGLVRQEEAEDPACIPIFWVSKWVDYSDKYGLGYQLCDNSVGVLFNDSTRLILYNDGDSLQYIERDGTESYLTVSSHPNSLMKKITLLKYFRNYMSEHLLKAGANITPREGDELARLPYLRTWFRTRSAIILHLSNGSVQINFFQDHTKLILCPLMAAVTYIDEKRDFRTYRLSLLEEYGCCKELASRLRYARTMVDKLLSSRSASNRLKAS
T2 sequence (P53350 whole entry): as above
T3 sequence (Q9NYY3 whole entry): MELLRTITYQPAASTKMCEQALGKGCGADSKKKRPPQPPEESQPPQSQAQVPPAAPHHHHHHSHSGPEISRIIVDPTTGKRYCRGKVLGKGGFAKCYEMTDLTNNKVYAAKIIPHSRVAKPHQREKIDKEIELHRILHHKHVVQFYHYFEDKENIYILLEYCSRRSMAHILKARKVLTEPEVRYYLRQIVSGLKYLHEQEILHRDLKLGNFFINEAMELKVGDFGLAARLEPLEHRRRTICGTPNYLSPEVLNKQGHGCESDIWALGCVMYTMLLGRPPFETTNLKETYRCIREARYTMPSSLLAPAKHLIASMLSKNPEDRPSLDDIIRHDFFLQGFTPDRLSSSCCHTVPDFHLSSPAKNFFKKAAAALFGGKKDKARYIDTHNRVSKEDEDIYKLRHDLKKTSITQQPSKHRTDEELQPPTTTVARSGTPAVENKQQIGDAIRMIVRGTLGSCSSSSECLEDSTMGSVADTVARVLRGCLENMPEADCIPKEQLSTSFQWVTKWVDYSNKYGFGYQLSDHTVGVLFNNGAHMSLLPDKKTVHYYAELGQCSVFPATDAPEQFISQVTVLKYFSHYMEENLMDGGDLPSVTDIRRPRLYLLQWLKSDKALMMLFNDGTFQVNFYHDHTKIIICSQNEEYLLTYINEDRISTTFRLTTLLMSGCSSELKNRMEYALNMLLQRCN
T4 sequence (Q9H4B4 whole entry): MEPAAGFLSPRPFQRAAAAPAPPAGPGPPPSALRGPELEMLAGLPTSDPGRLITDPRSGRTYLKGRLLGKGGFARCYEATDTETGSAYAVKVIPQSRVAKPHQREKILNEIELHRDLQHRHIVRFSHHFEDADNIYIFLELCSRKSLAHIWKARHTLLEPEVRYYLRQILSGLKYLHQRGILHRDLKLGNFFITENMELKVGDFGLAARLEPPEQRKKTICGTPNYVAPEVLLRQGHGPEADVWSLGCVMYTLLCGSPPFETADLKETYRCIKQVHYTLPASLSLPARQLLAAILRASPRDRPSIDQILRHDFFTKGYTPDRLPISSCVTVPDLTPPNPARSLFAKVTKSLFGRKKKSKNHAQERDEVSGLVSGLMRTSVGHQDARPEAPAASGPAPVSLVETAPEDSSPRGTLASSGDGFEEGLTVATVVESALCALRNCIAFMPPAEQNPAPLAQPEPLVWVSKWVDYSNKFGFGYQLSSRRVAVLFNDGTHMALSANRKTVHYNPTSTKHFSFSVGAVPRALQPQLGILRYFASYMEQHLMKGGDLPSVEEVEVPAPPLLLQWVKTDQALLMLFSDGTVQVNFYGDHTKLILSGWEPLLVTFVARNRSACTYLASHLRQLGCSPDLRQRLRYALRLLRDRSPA

IC50 (PLK1(h)): 219 nM
inhibition at 10 µM (PLK1 [1]): 97%
activity against PLK2 (PLK2): no significant activity
activity against PLK3 (PLK3): no significant activity
activity against other protein kinases (other protein kinases): no significant activity
SMILES: NC(=O)c1nn(-c2ccnc(Nc3ccccc3)c2)cc1OCc1ccc(CO)cc1Cl [Compound 15, 4-((2-chloro-4-(hydroxymethyl)benzyl)oxy)-1-(2-(phenylamino)pyridin-4-yl)-1H-pyrazole-3-carboxamide]
IC50 (PLK1 [2]): 28 nM
Activity pIC50 (PLK1 [2]): 7.5528

IC50 (PLK1(h)): 847 nM
SMILES: NC(=O)c1nn(-c2ccnc(Nc3ccccc3)c2)cc1OCc1ccccc1C(F)(F)F [Compound 13b]

SMILES: CN1CCN(c2ccc(C(=O)Nc3n[nH]c4c3CN(C(=O)Cc3cccs3)C4)cc2)CC1 [PHA-680626]
PLK1 IC50s (PLK1 [3]): low nanomolar

IC50 (PLK1(h)): 312 nM
SMILES: COc1ccccc1Nc1cc(-n2cc(OCc3ccc(CO)cc3Cl)c(C(N)=O)n2)ccn1 [Compound 17, 4-((2-chloro-4-(hydroxymethyl)benzyl)oxy)-1-(2-((2-methoxyphenyl)amino)pyridin-4-yl)-1H-pyrazole-3-carboxamide]
IC50 (PLK1 [2]): 25 nM
Activity pIC50 (PLK1 [2]): 7.6021

SMILES: CCOC(=O)c1nn(-c2ccnc(F)c2)cc1O [compound 3]
IC50 (PLK1 [2]): 430 nM
Activity pIC50 (PLK1 [2]): 6.3665

IC50 (PLK1(h)): > 10000 nM
SMILES: NC(=O)c1nn(-c2ccnc(N[C@H]3CCNC3)c2)cc1OCc1ccccc1 [Compound 10a]

IC50 (PLK1(h)): > 10000 nM
SMILES: NC(=O)c1nn(-c2ccnc(NC3CCNCC3)c2)cc1OCc1ccccc1 [Compound 9a]

IC50 (PLK1(h)): 1310 nM
SMILES: COc1ccccc1Nc1cc(-n2cc(OCc3ccccc3C(F)(F)F)c(C(N)=O)n2)ccn1 [Compound 14b]

IC50 (PLK1(h)): 9890 nM
SMILES: NC(=O)c1nn(-c2ccnc(Nc3ccccc3)c2)cc1OCc1ccccc1 [Compound 13a]

IC50 (PLK1(h)): > 10000 nM
SMILES: NC(=O)c1nn(-c2ccnc(NC3CCOCC3)c2)cc1OCc1ccccc1 [Compound 8a]

IC50 (PLK1(h)): 1020 nM
SMILES: COc1ccccc1Nc1cc(-n2cc(OCc3ccccc3)c(C(N)=O)n2)ccn1 [Compound 14a]

SMILES: O=Cc1n[nH]c2c1CCc1cnc(Nc3ccccc3)nc1-2 [compound 34]
IC50 (PLK1 [4]): 248 nM
Activity pIC50 (PLK1 [4]; pIC50 = −log IC50): 6.6055
